Blank lines part the entries; values can stand above or below the compound they belong to.
What was measured:
[1] = for effect of peptidase inhibitors on systemic absorption of TRH: 4 mM, Bestatin, 60 uM, D,L-Thiorphan, 0.6 uM, ocular TRH
[2] = Absorption of insulin into systemic circulation via the eyes or i.v. (125I blood level); type: in vivo, rabbit; conditions: ocular insulin plus leucine-leucine
[3] = Enkephalin-equivalent remaining in eye tissues at the end of 12 hr experiment
[4] = Blood enkephalin-equivalent concentration after ocular or i.v. enkephalin

Compound: O=C(O)CNC(=O)C(CS)Cc1ccccc1 (racemic) [D,L-Thiorphan, D,L-thiorphan]
- effect of peptidase inhibitors on systemic absorption of TRH ([1]; Leu-Leu): did not significantly enhance the systemic absorption of TRH

- eye drop concentration sufficient to reach therapeutic effective blood concentration ([1]; rabbit, in vivo): 0.005%
Compound: CC(C)C[C@H](NC(=O)CNC(=O)[C@H](Cc1ccc(O)cc1)NC(=O)[C@H](CO)NC(=O)[C@H](Cc1c[nH]c2ccccc12)NC(=O)[C@H](Cc1cnc[nH]1)NC(=O)[C@@H]1CCC(=O)N1)C(=O)N[C@@H](CCCNC(=N)N)C(=O)N1CCC[C@H]1C(=O)NCC(N)=O [LHRH, luteinizing hormone-releasing hormone]

Compound: CC(C)C[C@H](NC(=O)[C@@H](N)CC(C)C)C(=O)O [Leu-Leu, leucine-leucine]
- effect of peptidase inhibitors on systemic absorption of TRH ([1]; Leu-Leu): did not significantly enhance the systemic absorption of TRH
- effect of peptidase inhibitor on systemic absorption of LHRH ([1]; Leu-Leu, 5 mM, ocular LHRH): did increase the systemic absorption of LHRH significantly
- effect of peptidase inhibitor on systemic absorption of glucagon ([1]; Leu-Leu, 5 mM, ocular glucagon): did not increase the systemic absorption of glucagon
- effect of added peptidase inhibitor on insulin absorption [2]: did not significantly improve insulin absorption

- eye drop concentration giving a therapeutic blood concentration ([1]; rabbit, in vivo): ≥ 0.0025%
- peak blood TRH concentration ([1]; rabbit, in vivo): 138 ng/mL
- steady state blood TRH concentration after the peak ([1]; rabbit, in vivo): 60 ng/mL
- time from the peak to steady state ([1]; rabbit, in vivo): 9 h
- time to peak ([1]; rabbit, in vivo): 60 min
Compound: NC(=O)[C@@H]1CCCN1C(=O)[C@H](Cc1cnc[nH]1)NC(=O)[C@@H]1CCC(=O)N1 [TRH, Thyrotrophin-releasing hormone]

Compound: CC(C)C[C@H](NC(=O)[C@H](Cc1ccccc1)NC(=O)CNC(=O)CNC(=O)[C@@H](N)Cc1ccc(O)cc1)C(=O)O [enkephalin, Leucine-enkephalin (5-L-leucine)]
- actual concentration of enkephalin in the lens compared with other tissues [3]: lowest among all tissues
- Tx of decline of blood concentration ([4]; 50 ug i.v.): less than 30 min
- lowest point of blood concentration ([4]; 50 ug i.v., in 5 hrs): 22 ng/mL
- plateau blood enkephalin concentration ([4]; 1% enkephalin instilled into eye): 72 ng/mL
- plateau blood enkephalin concentration ([4]; 5% enkephalin instilled into eye): 233 ng/mL
